Experimental data taken from ChEMBL document CHEMBL5505992, “Novel membrane-targeting isoxanthohumol-amine conjugates for combating methicillin-resistant Staphylococcus aureus (MRSA) infections” (Eur J Med Chem, 2024).
Values after ≈ are worked out from the molar mass of the structure shown.

Columns and labels:
Staphylococcus aureus [1] = assay: Antibacterial activity against methicillin-resistant Staphylococcus aureus clinical isolate MRSA-11 measured after 16 to 18 hrs by CLSI method; assay type: functional; details: time 16-18 hrs
[2] = Hemolytic activity in sheep erythrocytes incubated for 1 hr by absorbance based analysis; assay type: toxicity, cell-based, Ovis aries, Erythrocyte
Staphylococcus aureus [3] = assay: Antibacterial activity against methicillin-resistant Staphylococcus aureus clinical isolate MRSA-13 measured after 16 to 18 hrs by CLSI method; assay type: functional; details: time 16-18 hrs
Staphylococcus aureus [4] = assay: Antibacterial activity against methicillin-resistant Staphylococcus aureus clinical isolate MRSA-17 measured after 16 to 18 hrs by CLSI method; assay type: functional; details: time 16-18 hrs
Staphylococcus aureus [5] = assay: Antibacterial activity against methicillin-resistant Staphylococcus aureus clinical isolate MRSA-22 measured after 16 to 18 hrs by CLSI method; assay type: functional; details: time 16-18 hrs
[6] = Selectivity index, ratio of HC50 for hemolytic activity in sheep erythrocytes to MIC for antibacterial activity against Staphylococcus aureus ATCC 29213; assay type: toxicity, cell-based; details: read-out: Selectivity Index
Staphylococcus aureus [7] = assay: Antibacterial activity against methicillin-resistant Staphylococcus aureus clinical isolate MRSA-16 measured after 16 to 18 hrs by CLSI method; assay type: functional; details: time 16-18 hrs
Staphylococcus aureus [8] = assay: Antibacterial activity against Staphylococcus aureus ATCC 29213 measured after 16 to 18 hrs by CLSI method; assay type: functional; details: time 16-18 hrs
Staphylococcus aureus [9] = assay: Antibacterial activity against methicillin-resistant Staphylococcus aureus clinical isolate MRSA-23 measured after 16 to 18 hrs by CLSI method; assay type: functional; details: time 16-18 hrs
Staphylococcus aureus [10] = assay: Antibacterial activity against methicillin-resistant Staphylococcus aureus clinical isolate MRSA-18 measured after 16 to 18 hrs by CLSI method; assay type: functional; details: time 16-18 hrs
Staphylococcus aureus [11] = assay: Antibacterial activity against methicillin-resistant Staphylococcus aureus clinical isolate MRSA-21 measured after 16 to 18 hrs by CLSI method; assay type: functional; details: time 16-18 hrs
Staphylococcus aureus [12] = assay: Antibacterial activity against methicillin-resistant Staphylococcus aureus clinical isolate MRSA-20 measured after 16 to 18 hrs by CLSI method; assay type: functional; details: time 16-18 hrs
Staphylococcus aureus [13] = assay: Antibacterial activity against methicillin-resistant Staphylococcus aureus clinical isolate MRSA-14 measured after 16 to 18 hrs by CLSI method; assay type: functional; details: time 16-18 hrs
Escherichia coli = assay: Antibacterial activity against Escherichia coli ATCC25922 measured after 16 to 18 hrs by CLSI method; assay type: functional; details: time 16-18 hrs

SMILES | MIC (Staphylococcus aureus [1]) [µg/mL] | HC50 at 1 h [2] [µg/mL] | MIC (Staphylococcus aureus [3]) [µg/mL] | MIC (Staphylococcus aureus [4]) [µg/mL] | MIC (Staphylococcus aureus [5]) [µg/mL] | selectivity ratio [6] | MIC (Staphylococcus aureus [7]) [µg/mL] | MIC (Staphylococcus aureus [8]) [µg/mL] | MIC (Staphylococcus aureus [9]) [µg/mL] | MIC (Staphylococcus aureus [10]) [µg/mL] | MIC (Staphylococcus aureus [11]) [µg/mL] | MIC (Staphylococcus aureus [12]) [µg/mL] | MIC (Staphylococcus aureus [13]) [µg/mL] | MIC (Escherichia coli) [µg/mL]
COc1cc(OCCCCN2CCSCC2)c(CC=C(C)C)c2c1C(=O)CC(c1ccc(OCCCCN3CCSCC3)cc1)O2 (centres undefined) | > 128 | > 640 | > 128 | > 128 | > 128 | > 10 | > 128 | 64 (≈ 95.7 µM) | > 128 | > 128 | > 128 | > 128 | > 128 | > 128
COc1cc(OCCCCN2CCC(C)CC2)c(CC=C(C)C)c2c1C(=O)CC(c1ccc(OCCCCN3CCC(C)CC3)cc1)O2 (centres undefined) | 16 (≈ 24.2 µM) | > 640 | 8 (≈ 12.1 µM) | 8 (≈ 12.1 µM) | 8 (≈ 12.1 µM) | > 40 | 8 (≈ 12.1 µM) | 16 (≈ 24.2 µM) | 16 (≈ 24.2 µM) | 16 (≈ 24.2 µM) | 8 (≈ 12.1 µM) | 16 (≈ 24.2 µM) | 16 (≈ 24.2 µM) | > 128
COc1cc(OCCCCCN2CCOCC2)c(CC=C(C)C)c2c1C(=O)CC(c1ccc(OCCCCCN3CCOCC3)cc1)O2 (centres undefined) | 16 (≈ 24.1 µM) | > 1280 | 16 (≈ 24.1 µM) | 16 (≈ 24.1 µM) | 8 (≈ 12 µM) | > 80 | 16 (≈ 24.1 µM) | 16 (≈ 24.1 µM) | 16 (≈ 24.1 µM) | 16 (≈ 24.1 µM) | 16 (≈ 24.1 µM) | 16 (≈ 24.1 µM) | 16 (≈ 24.1 µM) | > 128
COc1cc(OCCCCN2CCN(C)CC2)c(CC=C(C)C)c2c1C(=O)CC(c1ccc(OCCCCN3CCN(C)CC3)cc1)O2 (centres undefined) | 32 (≈ 48.3 µM) | > 1280 | 32 (≈ 48.3 µM) | 16 (≈ 24.1 µM) | 32 (≈ 48.3 µM) | > 40 | 32 (≈ 48.3 µM) | 32 (≈ 48.3 µM) | 32 (≈ 48.3 µM) | 32 (≈ 48.3 µM) | 32 (≈ 48.3 µM) | 32 (≈ 48.3 µM) | 32 (≈ 48.3 µM) | > 128
CCCCN(CCCC)CCCOc1ccc(C2CC(=O)c3c(OC)cc(OCCCN(CCCC)CCCC)c(CC=C(C)C)c3O2)cc1 (centres undefined) | 8 (≈ 11.5 µM) | 810 | 8 (≈ 11.5 µM) | 4 (≈ 5.77 µM) | 4 (≈ 5.77 µM) | 101 | 4 (≈ 5.77 µM) | 8 (≈ 11.5 µM) | 8 (≈ 11.5 µM) | 8 (≈ 11.5 µM) | 8 (≈ 11.5 µM) | 8 (≈ 11.5 µM) | 4 (≈ 5.77 µM) | > 128
COc1cc(OCCCN2CCOCC2)c(CC=C(C)C)c2c1C(=O)CC(c1ccc(OCCCN3CCOCC3)cc1)O2 (centres undefined) | > 128 | > 1280 | > 128 | > 128 | > 128 |  | > 128 | > 128 | > 128 | > 128 | > 128 | > 128 | > 128 | > 128
COc1cc(OCCCN(CC(C)C)CC(C)C)c(CC=C(C)C)c2c1C(=O)CC(c1ccc(OCCCN(CC(C)C)CC(C)C)cc1)O2 (centres undefined) | 64 (≈ 92.3 µM) | > 1280 | > 128 | > 128 | 32 (≈ 46.2 µM) |  | > 128 | > 128 | 32 (≈ 46.2 µM) | > 128 | 32 (≈ 46.2 µM) | > 128 | 64 (≈ 92.3 µM) | > 128
CCCN(CCC)CCCCOc1ccc(C2CC(=O)c3c(OC)cc(OCCCCN(CCC)CCC)c(CC=C(C)C)c3O2)cc1 (centres undefined) | 16 (≈ 24.1 µM) | > 1280 | 16 (≈ 24.1 µM) | 16 (≈ 24.1 µM) | 16 (≈ 24.1 µM) | > 80 | 16 (≈ 24.1 µM) | 16 (≈ 24.1 µM) | 16 (≈ 24.1 µM) | 32 (≈ 48.1 µM) | 16 (≈ 24.1 µM) | 16 (≈ 24.1 µM) | 16 (≈ 24.1 µM) | > 128
C[C@@H](O)[C@H]1C(=O)N2C(C(=O)O)=C(S[C@@H]3CN[C@H](C(=O)N(C)C)C3)[C@H](C)[C@H]12 [MEROPENEM] |  |  |  |  |  |  |  |  |  |  |  |  |  | 0.062 (≈ 0.162 µM)
CCCN(CCC)CCCCCOc1ccc(C2CC(=O)c3c(OC)cc(OCCCCCN(CCC)CCC)c(CC=C(C)C)c3O2)cc1 (centres undefined) | 8 (≈ 11.5 µM) | 331 | 8 (≈ 11.5 µM) | 8 (≈ 11.5 µM) | 8 (≈ 11.5 µM) | 41.4 | 8 (≈ 11.5 µM) | 8 (≈ 11.5 µM) | 16 (≈ 23.1 µM) | 16 (≈ 23.1 µM) | 8 (≈ 11.5 µM) | 8 (≈ 11.5 µM) | 8 (≈ 11.5 µM) | > 128
CCCN(CCC)CCCOc1ccc(C2CC(=O)c3c(OC)cc(OCCCN(CCC)CCC)c(CC=C(C)C)c3O2)cc1 (centres undefined) | 16 (≈ 25.1 µM) | > 1280 | 8 (≈ 12.6 µM) | 8 (≈ 12.6 µM) | 16 (≈ 25.1 µM) | > 80 | 8 (≈ 12.6 µM) | 16 (≈ 25.1 µM) | 16 (≈ 25.1 µM) | 16 (≈ 25.1 µM) | 16 (≈ 25.1 µM) | 16 (≈ 25.1 µM) | 16 (≈ 25.1 µM) | > 128
